For experiment [1], the system named is S. aureus JAR060131 biofilm formation. Type of experiment: cell-based, Staphylococcus aureus. The method, then: After solubilization with ethanol, the optical density at 590 nm is determined as a measure of biofilm mass.
Peptides were incubated with 1×10^8 CFU/ml of S. aureus JAR060131 in biofilm-adjusted BM2 in 96-wells polypropylene plates as described in Antimicrob Agents Chemother 2012; 56: 2696-2704. After 24 hours incubation at 37° C., planktonic bacteria were removed by four washes with PBS and biofilms were stained with crystal violet. After solubilization with ethanol, the optical density at 590 nm was determined as a measure of biofilm mass.
To assess the antibiofilm activity of the peptides in the presence of plasma, 96-wells polypropylene plates were coated with plasma by overnight incubation with 20% plasma at 4° C. Wells were washed once with sterile water and inoculated with S. aureus and peptides as described above.

In experiment [2] the test system is LPS (E. coli 054)-induced IL-12p40 production. In words: LPS neutralization in whole human blood. In kind it is cell-based. Conditions: for IC90: LPS-induced IL-12p40, blood from two donors; for IC50: diluted whole human blood, 20 hours. The text has this: (§1) The term “anti-inflammatory activity” of a polypeptide as used herein refers to inhibiting, reducing or preventing an inflammatory response in a subject that has been infected by microbes, e.g. bacteria, viruses, fungi, and/or parasites. Anti-inflammatory activity of polypeptides of the invention is achieved by inhibiting, reducing or preventing the release of pro-inflammatory microbial compounds, such as lipoteichoic acid (LTA), peptidoglycan (PG) and/or lipopolysaccharides (LPS). Anti-inflammatory activity can be measured by methods known in the art. Examples of such method are a LPS neutralization assay and a LTA neutralization assay as described in the Examples of this application. In such method, a polypeptide of the invention is mixed with a fixed concentration of LPS or LTA, such as 500 ng/ml LPS or 2 mg/ml LTA, and incubated for 30 min. Thereafter, these mixtures were added to diluted fresh human whole blood and 20 hours thereafter the level of cytokines (e.g. 1L-8 for LTA and 1L-12p40 for LPS) in the blood sample are measured by ELISA.
(§2) Peptides were pre-incubated with 500 ng/ml LPS (E. coli 054) or 2 mg/ml LTA (S. aureus, endotoxin-free) or 1×10^9 CFU/ml of UV-killed S. aureus JAR060131 for 30 min at 37° C. Diluted whole human blood was stimulated with the peptide-LPS/LTA/S. aureus mixtures for 20 hours at 37° C. IL-12p40 and IL-8 levels in supernatants were determined using ELISA.

The subject of experiment [3] is LTA (S. aureus)-induced IL-8 production. In words: LTA neutralization in whole human blood. Type of experiment: cell-based. Conditions: for IC50: LTA-induced IL-8, blood from one donor.
Source text: as §1, §2

Experiment [4] has as its system UV-killed S. aureus JAR060131-induced IL-8 production. In words: S. aureus neutralization in whole human blood. Type of experiment: cell-based. Conditions: for IC50: UV-killed S. aureus JAR060131-induced IL-8, blood from one donor. As to the method:
as §2

The next experiment has as its system A. niger PagsA-lux. In words: Effect on fungal growth. Conditions: for concentration inhibiting A. niger growth: 25% plasma, light micrographs only, 16 hours (FIG. 2). In kind it is cell-based, Aspergillus niger. The method, then:
The effect of the peptides on fungal growth was assessed using Aspergillus niger. Peptides were incubated with 7.5×10^4 spores/ml of A. niger PagsA-lux in PBS without or with addition of pooled human plasma at a final concentration of 25%. As positive control, spores were treated with the antifungal caspofungin (Cancidas). Absorbance was measured over time and at 16 hours, fungal growth was visualized using light microscopy.

For experiment [5], the system named is Staphylococcus epidermidis RP62a. In kind it is cell-based. The following applies: 50% plasma. The method, then: (§3) Peptides were incubated with 1×10^6 CFU/ml of a mid-logarithmic culture of S. aureus JAR060131, methicillin resistant S. aureus (MRSA) LUH14616, Staphylococcus epidermidis RP62a, and Pseudomonas aeruginosa PAO1 in PBS without or with addition of pooled human plasma (Sanquin, Amsterdam, the Netherlands) at a final concentration of 50%. Antimicrobial activity is expressed as the 99.9% lethal concentration (LC99.9), i.e., the lowest peptide concentration which killed ≥99.9% of bacteria after 2 hours of incubation at 37° C. under shaking conditions.

For the next experiment, the system named is S. aureus JAR060131. In kind it is cell-based, Staphylococcus aureus. Conditions: approx. 1 × 10^6 CFU/ml S. aureus JAR, within 2 hrs (Table 2). As to the method: Polypeptides of the invention preferably have an in vitro IC99.9 of at most 150 μM after 2 hours at 37° C. against at least one microbial species in the presence of 50% plasma. Said IC99.9 is preferably determined in accordance with a method for determining the antimicrobial activity as described herein in the Examples. Said method described in the Examples for determining antimicrobial activity of microbes not associated with biofilm involves the mixing of 50 microL of a solution of a polypeptide in PBS with addition of human plasma at a final concentration of 50% and 20 microL of bacterial suspension with 5×10^6 CFU per mL of PBS in a well. After incubation of this mixture for 2 hours at 37° C. under shaking conditions, a sample is used for assessment of the bacterial counts. The lowest peptide concentration at which there is 99.9% of bacteria killed, is called the inhibitory concentration (IC) 99.9. Bacterial counts can be determined by manual CFU counting. For determining antibacterial activity for instance 1×10^6 CFU/ml bacteria are used, for determining antifungal activity for instance 1×10^5 cells/ml are used.
as §3

Where [6] appears, read: JAR060131 biofilm formation, 24 h.

Experimental findings from patent US10130677B2, “Antimicrobial peptide and uses thereof” (priority 2013, dated 2018) are described below.

A word on the IC90: it is the concentration at which the effect reaches the 90% level.

Like-named read-outs stand apart in the source and are kept apart here.

For the substance “Ac-LKRLYKRVFRLLKRYYRQLRRPVR-NH2 [Peptide P159, J LKRLYKRVFRLLKRYYRQLRRPVR B]”, the IC50 in experiment [1] (setting [6]) came to 12800 nM; in experiment [1] (plasma-coated wells (FIG. 3B), read-out: concentration inhibiting biofilm formation for 50%) it was 3200 nM; in experiment [2], 0.05 nM; in experiment [3], 0.195 µM; in experiment [4], 0.195 µM. Also, the concentration for an effect of 90% (IC90) in experiment [2] was determined as 0.25 nM. In addition, the “fold increased LTA-neutralizing ability versus OP-145” value in experiment [3] is on record as 4 fold. Further, the “concentration inhibiting A. niger growth” value in the experiment with A. niger PagsA-lux is 102.4 µM. The “fold lower antifungal activity as compared to OP-145” value in the experiment on A. niger PagsA-lux (PBS) is 2 fold. Also, the “higher bactericidal activity as compared to OP-145” value in experiment [5] was 43 fold. The IC99.9 amounted to 12.8 µM in the experiment on S. aureus JAR060131 (50% plasma) and 1.6 µM with S. aureus JAR060131 (PBS).
“Ac-LKRVWKRVFKLLKRYWRQLKKPVR-NH2 [Peptide P148, J LKRVWKRVFKLLKRYWRQLKKPVR B]”: the IC50 came to 12800 nM in experiment [1] (setting [6]), 0.03 nM in experiment [2], 0.195 µM in experiment [3] and 1.56 µM in experiment [4]. Besides, the “concentration needed to inhibit biofilm formation for 50%, relative to OP-145 and P159” value in experiment [1] (plasma-coated wells (FIG. 3B)) is listed as “two-fold higher concentration”. For the same substance, in experiment [2], the IC90 stood at 0.25 nM. For the same substance, the “fold increased LTA-neutralizing ability versus OP-145” value in experiment [3] is 4 fold. For the same substance, the “fold higher concentration than OP-145 needed to inhibit S. aureus-induced IL-8 production for >50%” value in experiment [4] was determined as 8 fold. Besides, the “concentration inhibiting A. niger growth” value in the experiment on A. niger PagsA-lux is 102.4 µM. In addition, the “fold higher antifungal activity as compared to OP-145” value with A. niger PagsA-lux (PBS) came out at 4 fold. For the same substance, the “concentration inhibiting A. niger growth (by >99.9%)” value in the experiment on A. niger PagsA-lux (PBS, optical density (FIG. 1)) was 0.8 µM. For the same substance, in experiment [5], the “higher bactericidal activity as compared to OP-145” value is reported as 43 fold. Also, the IC99.9 in the experiment with S. aureus JAR060131 (50% plasma) turned out to be 12.8 µM; with S. aureus JAR060131 (PBS), 1.6 µM.
